Where two headings read alike, the source gives them in different places.

This series can be described thus: Hydrolysis rate of betaine ester, pH-stat titrator at constant pH and temperature. The following applies: for profile of hydrolysis: dependence on pH. The class given is physicochemical. The method, then:
Test realised under pH-stat configuartion, at controlled temperature (40°C). Concentration in betaine ester used 1.5.10^-2 mol/l
[formula] Test conditions: C12 BEG added to a solution (pH 10.5) of sodium stearate in distilled water. pH and temperature maintained constant all along the test. Percentage of C12 BEG hydrolysed assessed using an automatic pH stat titrator. Concentrations used: C12 BEG 1.25 10^-2 mol/l Sodium stearate: 1 equivalent 1.25 10^-2 mol/l 2 equivalents 2.5 10^-2 mol/l
[formula] • Hydrolysis rate determined with a Radiometer pH stat. • Temperature (40°C) and pH (10.5) maintained constant. Concentration in C12 BEG or new ion pair C12 BEG/DS: 10^-3 mol/l. • Mixture anionic/nonionic: sodium dodecylsulfate (0.43 g/l), sodium stearate (0.013 g/l), alkylethoxylate (Dobanol 45 7 from Shell, 0.38 g/l), N-cocoyl-N-methylglucamine (0.16 g/l). • Kinetics of hydrolysis of C12 BEG/DS, with or without surfactants all follow a first order in [C12BEG/DS].

[1] abbreviates: 40°C, pH 10.5, with 1 equivalent of sodium dodecylsulfate.
Setting [2] is: 40°C, pH 10.5, with 3 equivalents of sodium dodecylsulfate.
Setting [3] is: 40°C, pH 10.5, with 5 equivalents of sodium dodecylsulfate.
The mark [4] stands for this setting: 40°C, pH 10.5, with 10 equivalents of sodium dodecylsulfate.
Where [5] appears, read: 40°C, pH 8.5, 1.25 10^-2 mol/l, alone.
Where [6] appears, read: 40°C, pH 8.5, with 1 equivalent sodium stearate.
The mark [7] stands for this setting: 40°C, pH 8.5, with 2 equivalent sodium stearate.
[8] abbreviates: 40°C, pH 10.5, 1.25 10^-2 mol/l, with 2 equivalents of sodium dodecylsulfate.
[9] abbreviates: 40°C, pH 10.5, 1.25 10^-2 mol/l, with 4 equivalents of sodium dodecylsulfate.
Setting [10] is: 40°C, pH 10.5, 1.25 10^-2 mol/l, with 9 equivalents of sodium dodecylsulfate.
Setting [11] is: 40°C, pH 10.5, 10^-3 mol/l, with mixture anionic/nonionic.
The mark [12] stands for this setting: 40°C, pH 10.5, 10^-3 mol/l, with sodium dodecylsulfate only.
Where [13] appears, read: 40°C, pH 10.5, ion pair 1.25 10^-2 mol/l alone.
Where [14] appears, read: 40°C, pH 10.5, ion pair 10^-3 mol/l alone.

As to `CC(C)=CCC/C(C)=C/COC(=O)C[N+](C)(C)C.[Cl-]` [BEG, geranyloxycarbonyl-N,N,N-trimethylmethanaminium chloride], the profile of hydrolysis result is “very dependent on pH”. Besides, where the note is “40°C, pH 10.5, alone”, the k is 3950 mol^- ^1.l.min^-1 and the “kobs at pH 10.5” value turned out to be 1.25 min^-1. Further, under setting [1], the k was determined as 202 mol^- ^1.l.min^-1 and the “kobs at pH 10.5” value amounted to 0.064 min^-1. Further, under setting [2], the k came to 35 mol^- ^1.l.min^-1 and the “kobs at pH 10.5” value is 0.0111 min^-1. Moreover, under setting [3], the k is on record as 23.5 mol^- ^1.l.min^-1 and the “kobs at pH 10.5” value is reported as 0.0074 min^-1. Under setting [4], the k is 21 mol^- ^1.l.min^-1 and the “kobs at pH 10.5” value is 0.0067 min^-1. Under “buffer, pH 10.5, 40°C, pH 10.5, alone, read-out: t1/2 at pH 10.5”, the half-life is around 0.5 min. Moreover, the Hydrolysis profile entry (pH-stat, 40°C, betaine ester 1.5.10^-2 mol/l) is recorded as “very pH dependent”. For the same compound, under “solution with 1 equivalent sodium dodecylsulfate, pH 10.5, 40°C, pH 10.5, with 1 equivalent of sodium dodecylsulfate, read-out: t1/2 at pH 10.5”, the half-life came to 10.8 min. Also, the half-life (solution with 3 equivalents sodium dodecylsulfate, pH 10.5, 40°C, pH 10.5, with 3 equivalents of sodium dodecylsulfate, read-out: t1/2 at pH 10.5) worked out at 63 min. In addition, the half-life (solution with 5 equivalents sodium dodecylsulfate, pH 10.5, 40°C, pH 10.5, with 5 equivalents of sodium dodecylsulfate, read-out: t1/2 at pH 10.5) turned out to be 93 min. For the same compound, where the note is “solution with 10 equivalents sodium dodecylsulfate, pH 10.5, 40°C, pH 10.5, with 10 equivalents of sodium dodecylsulfate, read-out: t1/2 at pH 10.5”, the half-life amounted to 104 min.
For `CCCCCCCCCCCC[N+](C)(C)CC(=O)OC/C=C(\C)CCC=C(C)C.[Br-]` [C12 BEG, Geranyloxycarbonyl-N,N-dimethyl-N-dodecylmethanaminium bromide], the profile of hydrolysis entry is on record as “very dependent on pH”. In addition, the “kobs at pH 8.5” value (40°C, alone) is above 30 min^-1. Moreover, under setting [5], the k was >100 000 mol^- ^1.l.min^-1 and the “kobs at pH 8.5” value is on record as above 0.3 min^-1. Under setting [6], the k is reported as 20 333 mol^- ^1.l.min^-1 and the “kobs at pH 8.5” value was found to be 0.0643 min^-1. In addition, under setting [7], the k came to 904 mol^- ^1.l.min^-1 and the “kobs at pH 8.5” value was 0.00286 min^-1. The k (40°C, pH 10.5, 1.25 10^-2 mol/l, alone) is recorded as >100 000 mol^- ^1.l.min^-1. This compound also returned a k (40°C, pH 10.5, 10^-3 mol/l, alone) above 15000 mol^- ^1.l.min^-1. Also, the k (40°C, pH 10.5, alone) is listed as >100 000 mol^- ^1.l.min^-1. Further, for the setting “40°C, pH 10.5, high betaine ester concentration 1.25 10^-2 mol/l, alone”, the k obs is above 30 min⁻¹. Besides, the k obs (40°C, pH 10.5, lower concentration 10^-3 mol/l, alone) is above 5 min⁻¹. In addition, the k (40°C, pH 10.5, with 1 equivalent sodium dodecylsulfate) is 5.3 mol^- ^1.l.min^-1. The k (40°C, pH 10.5, with 1 equivalent sodium hexadecylsulfonate) is 1580 mol^- ^1.l.min^-1. Also, for the setting “40°C, pH 10.5, with 2 equivalents sodium stearate”, the k was 1265 mol^- ^1.l.min^-1. Further, the “kobs at pH 8.5” value (40°C, with 1 equivalent sodium dodecylsulfate) amounted to 0.0017 min^-1. Moreover, for the setting “40°C, with 1 equivalent sodium hexadecylsulfonate”, the “kobs at pH 8.5” value is 0.5 min^-1. Besides, the “kobs at pH 8.5” value (40°C, with 2 equivalents sodium stearate) is on record as 0.4 min^-1. The half-life at 0.0125 mol/l (buffer, pH 8.5, 40°C, pH 8.5, 1.25 10^-2 mol/l, alone, read-out: t1/2 pH 8.5) was below 2 min. In addition, the half-life at 0.0125 mol/l (buffer, pH 10.5, 40°C, pH 10.5, 1.25 10^-2 mol/l, alone, read-out: t1/2) was below 0.0333 min. The half-life (buffer, pH 10.5, 40°C, pH 10.5, 10^-3 mol/l, alone, read-out: t1/2) was below 0.167 min. Where the note is “buffer, pH 10.5, 40°C, pH 10.5, alone, read-out: t1/2 pH 10.5”, the half-life was below 0.0333 min. Under “compared with a normal ester, C12 BEG 1.25 10^-2 mol/l”, the “rate of hydrolysis at pH neutral (∼7)” value was “far faster than for a normal ester”. The half-life at 0.0125 mol/l (sodium stearate solution in distilled water (1 equivalent), pH 8.5, 40°C, pH 8.5, with 1 equivalent sodium stearate, read-out: t1/2 pH 8.5) turned out to be 11 min. Further, the half-life at 0.0125 mol/l (sodium stearate solution in distilled water (2 equivalents), pH 8.5, 40°C, pH 8.5, with 2 equivalent sodium stearate, read-out: t1/2 pH 8.5) amounted to 243 min. Also, the half-life at 0.0125 mol/l (sodium stearate solution in distilled water (2 equivalents), pH 10.5, 40°C, pH 10.5, with 2 equivalents sodium stearate, read-out: t1/2 pH 10.5) was 1.7 min. Further, the half-life (solution with 1 equivalent sodium dodecylsulfate, pH 10.5, 40°C, pH 10.5, with 1 equivalent sodium dodecylsulfate, read-out: t1/2 pH 10.5) is 414 min. Moreover, under “solution with 1 equivalent sodium hexadecylsulfonate, pH 10.5, 40°C, pH 10.5, with 1 equivalent sodium hexadecylsulfonate, read-out: t1/2 pH 10.5”, the half-life came out at 1.4 min.
`CCCCCCCCCCCCOS(=O)(=O)[O-].CCCCCCCCCCCC[N+](C)(C)CC(=O)OC/C=C(\C)CCC=C(C)C` [C12 BEG/DS]: the k runs as follows: under setting [8], 10.6 mol^- ^1.l.min^-1; under setting [9], 26.1 mol^- ^1.l.min^-1; under setting [10], 32.8 mol^- ^1.l.min^-1; under setting [11], 37 mol^- ^1.l.min^-1; under setting [12], 28.6 mol^- ^1.l.min^-1; under setting [13], 229 mol^- ^1.l.min^-1. Further, the k under setting [14] came out at 423.7 mol^- ^1.l.min^-1. In addition, the k obs runs as follows: under setting [8], 0.0034 min⁻¹; under setting [9], 0.0083 min⁻¹; under setting [10], 0.0104 min⁻¹; under setting [11], 0.01169 min⁻¹; under setting [12], 0.0095 min⁻¹; under setting [13], 0.0724 min⁻¹. The compound also yielded a k obs under setting [14] of 0.134 min⁻¹. Besides, the t1/2 stood at 206 min (40°C, pH 10.5, 1.25 10^-2 mol/l, with 2 equivalents of sodium dodecylsulfate, 12500 µM); 84 min (40°C, pH 10.5, 1.25 10^-2 mol/l, with 4 equivalents of sodium dodecylsulfate, 12500 µM); 67 min (40°C, pH 10.5, 1.25 10^-2 mol/l, with 9 equivalents of sodium dodecylsulfate, 12500 µM); 59 min (40°C, pH 10.5, 10^-3 mol/l, with mixture anionic/nonionic, 1000 µM); 77 min (40°C, pH 10.5, 10^-3 mol/l, with sodium dodecylsulfate only, 1000 µM); 9.6 min (40°C, pH 10.5, ion pair 1.25 10^-2 mol/l alone, 12500 µM). The compound also yielded a t1/2 (40°C, pH 10.5, ion pair 10^-3 mol/l alone, 1000 µM) of 5.2 min.

Values taken from patent EP0752465A1, “Betaine esters for delivery of alcohols” (THE PROCTER & GAMBLE COMPANY, priority 1995, dated 1997).
